# Assay results taken from patent US20260285816A1, “Piperazinyl-Modified Quinazolinyl-Aryl Urea Derivative, And Preparation Method And Use Thereof” (Guangxi Normal University, priority 2025, published 2026).
# Like-named read-outs stand apart in the source and are kept apart here.
# Experiments:
# Type in all cases: cell-based, human
# J82 cells = experiment: CCK-8 anti-proliferative assay, J82; conditions: Homo sapiens, J82; Table 10; co-incubated 48 h; read-out: Anti-proliferative activity (IC50 ± standard deviation) J82
# Summary of the method: (§1)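 Cells seeded at 5,000/well and grown at 37° C., 5% CO2 to 70% confluency, then treated with compound at final 1, 2, 4, 6, 8, 12, 16, 24 and 30 μM in triplicate.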
# MG-63 cells = experiment: CCK-8 anti-proliferative assay, MG-63; conditions: Homo sapiens, MG-63; Table 11; co-incubated 48 h; read-out: Anti-proliferative activity (IC50 ± standard deviation) MG-63
# Summary of the method: (§2)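 Human tumour cells were seeded at 5,000 per well and grown to 70% confluence. They were then treated in triplicate with compound at 1–30 μM (final) for the designated time. Viability was read by CCK-8 absorbance at 450 nm after 1–4 h, and IC50 was derived from % inhibition versus control.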
# MCF-7 cells = experiment: CCK-8 anti-proliferative assay, MCF-7; conditions: Homo sapiens, MCF7; Table 12; co-incubated 48 h; read-out: Anti-proliferative activity (IC50 ± standard deviation) MCF-7
# Summary of the method: as §1
# A549 cells = experiment: CCK-8 anti-proliferative assay, A549; conditions: Homo sapiens, A549; Table 13; co-incubated 48 h; read-out: Anti-proliferative activity (IC50 ± standard deviation) A549
# Summary of the method: as §1
# 143B cells = experiment: CCK-8 anti-proliferative assay, 143B; conditions: Homo sapiens, 143B; Table 11; co-incubated 48 h; read-out: Anti-proliferative activity (IC50 ± standard deviation) 143B
# Summary of the method: as §2
# HeLa cells = experiment: CCK-8 anti-proliferative assay, HeLa; conditions: Homo sapiens, HeLa; Table 12; co-incubated 48 h; read-out: Anti-proliferative activity (IC50 ± standard deviation) HeLa
# Summary of the method: as §1
# BxPC-3 cells = experiment: CCK-8 anti-proliferative assay, BxPC-3; conditions: for IC50: Homo sapiens, BXPC-3, Table 11, co-incubated 48 h, read-out: Anti-proliferative activity (IC50 ± standard deviation) BxPC-3
# Summary of the method: as §2
# 5637 cells = experiment: CCK-8 anti-proliferative assay, 5637; conditions: Homo sapiens; Table 10; co-incubated 48 h; read-out: Anti-proliferative activity (IC50 ± standard deviation) 5637
# Summary of the method: as §1
# UM-UC-3 cells = experiment: CCK-8 anti-proliferative assay, UM-UC-3; conditions: Homo sapiens, UMUC3; Table 10; co-incubated 48 h; read-out: Anti-proliferative activity (IC50 ± standard deviation) UM-UC-3
# Summary of the method: as §1
# Hep G2 cells = experiment: CCK-8 anti-proliferative assay, Hep G2; conditions: for IC50: Homo sapiens, HepG2
# Summary of the method: as §2
# [1] = system: immortalized ureteral epithelial cells (SV-HUC-1); experiment: CCK-8 anti-proliferative assay, normal cells SV-HUC-1; conditions: Homo sapiens, SV-HUC1; Table 13; normal cells; co-incubated 48 h; read-out: Anti-proliferative activity (IC50 ± standard deviation) SV-HUC-1
# Summary of the method: as §1
# T24 cells = experiment: CCK-8 anti-proliferative assay, T24; conditions: Homo sapiens, T-24; Table 10; co-incubated 48 h; read-out: Anti-proliferative activity (IC50 ± standard deviation) T24
# Summary of the method: as §2
# PANC-1 cells = experiment: CCK-8 anti-proliferative assay, PANC-1; conditions: for IC50: Homo sapiens, PANC-1, Table 11, co-incubated 48 h, read-out: Anti-proliferative activity (IC50 ± standard deviation) PANC-1
# Summary of the method: as §2
# SK-OV-3 cells = experiment: CCK-8 anti-proliferative assay, SK-OV-3; conditions: Homo sapiens, SK-OV-3; Table 12; co-incubated 48 h; read-out: Anti-proliferative activity (IC50 ± standard deviation) SK-OV-3
# Summary of the method: as §1
# [2] = system: embryonic lung fibroblasts (WI-38); experiment: CCK-8 anti-proliferative assay, normal cells WI-38; conditions: Homo sapiens, WI-38, Table 13, co-incubated 48 h, read-out: Anti-proliferative activity (IC50 ± standard deviation) WI-38
# Summary of the method: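 Absorbance at 450 nm after CCK-8 labelling (1–4 h, varying by cell line) gave inhibition relative to untreated control, from which IC50 values were derived. Compounds were applied at final concentrations of 1 to 30 μM in triplicate wells once cultures reached 70% confluency, with co-incubation for designated durations.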
# [3] = Table 12, co-incubated 48 h, read-out: Anti-proliferative activity (IC50 ± standard deviation) Hep G2
Compound,IC50 (J82 cells),IC50 (MG-63 cells),IC50 (MCF-7 cells),IC50 (A549 cells),IC50 (143B cells),IC50 (HeLa cells),IC50 (BxPC-3 cells),IC50 (5637 cells),IC50 (UM-UC-3 cells),IC50 (Hep G2 cells; [3]),IC50 [1],IC50 (T24 cells),IC50 (PANC-1 cells),IC50 (SK-OV-3 cells),IC50 [2],"Sensitivity of BxPC-3 / anti-proliferative activity against BxPC-3, in words (BxPC-3 cells)","Anti-proliferative activity against Hep G2 versus comparative series, in words (Hep G2 cells)",IC50 (Hep G2 cells; read-out: IC50 on Hep G2),"Sensitivity of PANC-1, in words (PANC-1 cells)"
"COc1cc2ncnc(NCc3cccc(NC(=O)Nc4ccccc4C)c3)c2cc1OCCCCCCN1CCC(CN2CCN(c3ccccn3)CC2)CC1 [Compound 8-2b, N-(3-(((7-methoxy-6-((6-(4-((4-(pyridin-2-yl)piperazin-1-yl)methyl)piperidin-1-yl)hexyl)oxy)quinazolin-4-yl)amino)methyl)phenyl)-N′-(2-methylphenyl)urea]",6.86 ± 0.52 µM,6.44 ± 0.81 µM,7.25 ± 0.66 µM,5.47 ± 0.22 µM,6.47 ± 0.34 µM,5.72 ± 0.41 µM,5.92 ± 0.38 µM,4.79 ± 0.43 µM,7.03 ± 0.37 µM,4.04 ± 0.28 µM,8.74 ± 0.63 µM,6.96 ± 0.85 µM,14.5 ± 0.94 µM,6.21 ± 0.55 µM,9.02 ± 0.41 µM,–,–,–,–
"COc1cc2ncnc(NCc3cccc(NC(=O)Nc4cccc(C)c4)c3)c2cc1OCCCCCCN1CCC(CN2CCN(c3ccccn3)CC2)CC1 [Compound 8-2c, N-(3-(((7-methoxy-6-((6-(4-((4-(pyridin-2-yl)piperazin-1-yl)methyl)piperidin-1-yl)hexyl)oxy)quinazolin-4-yl)amino)methyl)phenyl)-N′-(3-methylphenyl)urea]",7.02 ± 0.58 µM,6.83 ± 0.62 µM,6.69 ± 0.48 µM,8.39 ± 0.85 µM,6.01 ± 0.46 µM,6.19 ± 0.53 µM,13.4 ± 0.88 µM,7.06 ± 0.57 µM,8.98 ± 0.89 µM,4.69 ± 0.36 µM,8.28 ± 0.51 µM,7.29 ± 0.61 µM,19.2 ± 1.08 µM,7.94 ± 0.66 µM,11.2 ± 0.49 µM,–,–,–,–
"COc1cc2ncnc(NCc3cccc(NC(=O)Nc4ccc(C)cc4)c3)c2cc1OCCCCCCN1CCC(CN2CCN(c3ccccn3)CC2)CC1 [Compound 8-2d, N-(3-(((7-methoxy-6-((6-(4-((4-(pyridin-2-yl)piperazin-1-yl)methyl)piperidin-1-yl)hexyl)oxy)quinazolin-4-yl)amino)methyl)phenyl)-N′-(4-methylphenyl)urea]",13.8 ± 1.33 µM,7.29 ± 0.62 µM,7.92 ± 0.51 µM,9.23 ± 0.61 µM,6.92 ± 0.39 µM,4.79 ± 0.38 µM,9.29 ± 0.73 µM,14.3 ± 0.89 µM,7.58 ± 0.79 µM,3.82 ± 0.25 µM,7.94 ± 0.44 µM,6.62 ± 0.49 µM,25.4 ± 2.04 µM,6.79 ± 0.62 µM,9.79 ± 0.38 µM,–,–,–,–
"COc1cc2ncnc(NCc3cccc(NC(=O)Nc4ccc(C)cc4C)c3)c2cc1OCCCCCCN1CCC(CN2CCN(c3ccccn3)CC2)CC1 [Compound 8-2e, N-(3-(((7-methoxy-6-((6-(4-((4-(pyridin-2-yl)piperazin-1-yl)methyl)piperidin-1-yl)hexyl)oxy)quinazolin-4-yl)amino)methyl)phenyl)-N′-(2,4-dimethylphenyl)urea]",5.31 ± 0.26 µM,7.03 ± 0.71 µM,7.65 ± 0.69 µM,4.92 ± 0.29 µM,5.19 ± 0.33 µM,5.26 ± 0.29 µM,5.46 ± 0.44 µM,4.31 ± 0.42 µM,6.68 ± 0.47 µM,3.68 ± 0.19 µM,7.56 ± 0.38 µM,5.57 ± 0.36 µM,8.37 ± 0.66 µM,7.26 ± 0.72 µM,10.9 ± 0.66 µM,heightened sensitivity,significantly better than that of 9a to 9y,3.68 ± 0.19 µM,heightened sensitivity
"COc1cc2ncnc(NCc3cccc(NC(=O)Nc4cc(C)cc(C)c4)c3)c2cc1OCCCCCCN1CCC(CN2CCN(c3ccccn3)CC2)CC1 [Compound 8-2f, N-(3-(((7-methoxy-6-((6-(4-((4-(pyridin-2-yl)piperazin-1-yl)methyl)piperidin-1-yl)hexyl)oxy)quinazolin-4-yl)amino)methyl)phenyl)-N′-(3,5-dimethylphenyl)urea]",12 ± 0.87 µM,6.92 ± 0.53 µM,8.09 ± 0.48 µM,7.67 ± 0.93 µM,5.75 ± 0.36 µM,7.25 ± 0.38 µM,9.06 ± 0.42 µM,6.91 ± 0.67 µM,12 ± 0.86 µM,11.7 ± 0.84 µM,11.6 ± 0.79 µM,6.01 ± 0.46 µM,12.8 ± 0.62 µM,14.2 ± 0.84 µM,9.89 ± 0.53 µM,–,–,–,–
"CCc1ccccc1NC(=O)Nc1cccc(CNc2ncnc3cc(OC)c(OCCCCCCN4CCC(CN5CCN(c6ccccn6)CC5)CC4)cc23)c1 [Compound 8-2g, N-(3-(((7-methoxy-6-((6-(4-((4-(pyridin-2-yl)piperazin-1-yl)methyl)piperidin-1-yl)hexyl)oxy)quinazolin-4-yl)amino)methyl)phenyl)-N′-(2-ethylphenyl)urea]",5.76 ± 0.31 µM,6.04 ± 0.65 µM,7.62 ± 0.77 µM,6.59 ± 0.64 µM,5.37 ± 0.29 µM,5.62 ± 0.44 µM,8.56 ± 0.72 µM,6.04 ± 0.43 µM,11.6 ± 0.62 µM,6.38 ± 0.44 µM,7.42 ± 0.35 µM,7.04 ± 0.55 µM,8.79 ± 0.98 µM,8.96 ± 0.83 µM,9.39 ± 0.41 µM,–,–,–,–
"COc1cc2ncnc(NCc3cccc(NC(=O)Nc4ccc(C(C)C)cc4)c3)c2cc1OCCCCCCN1CCC(CN2CCN(c3ccccn3)CC2)CC1 [Compound 8-2i, N-(3-(((7-methoxy-6-((6-(4-((4-(pyridin-2-yl)piperazin-1-yl)methyl)piperidin-1-yl)hexyl)oxy)quinazolin-4-yl)amino)methyl)phenyl)-N′-(4-isopropylphenyl)urea]",5.88 ± 0.35 µM,4.79 ± 0.46 µM,6.21 ± 0.63 µM,7.63 ± 0.87 µM,6.38 ± 0.33 µM,4.97 ± 0.48 µM,8.97 ± 0.89 µM,4.24 ± 0.32 µM,6.32 ± 0.44 µM,3.85 ± 0.29 µM,10.8 ± 0.74 µM,5.92 ± 0.47 µM,9.42 ± 0.83 µM,6.69 ± 0.49 µM,10.5 ± 0.36 µM,–,–,–,–
